“And” between values parts separate entries of the source, which are not always exact repeats. Equal values may be shown once.
Assay: Plasma PF-06873600 pharmacokinetics (LC/MS-MS, noncompartmental analysis)
Type: in vivo, human
Experimental: Plasma samples were analyzed for PF-06873600 concentrations at Q2 Solutions using a validated analytic assay in compliance with Pfizer standard operating procedures. PF-06873600 samples were assayed by a validated LC/MS-MS using positive ionization mode. PK parameters were calculated using noncompartmental analysis of plasma concentration–time data.

[1] = 25 mg twice daily, after multiple dosing
[2] = Cycle 1 Day 1, Part 1 25 mg BID IR (pooled cohorts)
[3] = Cycle 1 Day 1, Part 1A 1 mg BID IR
[4] = Cycle 1 Day 1, Part 1A 2 mg BID IR
[5] = Cycle 1 Day 1, Part 1A 5 mg BID IR
[6] = Cycle 1 Day 1, Part 1A 10 mg BID IR
[7] = Cycle 1 Day 1, Part 1A 25 mg BID Biomarker IR
[8] = Cycle 1 Day 1, Part 1A 25 mg BID IR
[9] = Cycle 1 Day 1, Part 1A 35 mg BID IR
[10] = Cycle 1 Day 1, Part 1A 35 mg BID Intm 5/2 IR
[11] = Cycle 1 Day 1, Part 1A 50 mg BID IR
[12] = Cycle 1 Day 1, Part 1B 25 mg BID +Ful IR
[13] = Cycle 1 Day 1, Part 1B 25 mg BID +Let IR
[14] = Cycle 1 Day 1, Part 1C MR 20 mg lead-in IR 25 mg BID
[15] = Cycle 1 Day 1, Part 1C MR 30 mg BID long duration
[16] = Cycle 1 Day 15, Part 1 25 mg BID IR (pooled cohorts)
[17] = Cycle 1 Day 15, Part 1A 1 mg BID IR

For C[C@@]1(O)CCC[C@H]1n1c(=O)c(C(F)F)cc2cnc(NC3CCN(S(C)(=O)=O)CC3)nc21 [PF-06873600], the “Geometric mean coefficient of variation percentage, AUCtau” value [1] was 45%, the “Geometric mean coefficient of variation percentage, Cmax” value [1] was 43% and the “Geometric mean coefficient of variation percentage, Cmin” value [1] was 119%. For the same compound, the “Geometric mean coefficient of variation percentage, AUCinf” value (25 mg twice daily, single dose) was 58%, the “Geometric mean coefficient of variation percentage, Cmax” value (25 mg twice daily, single dose) was 56% and the “AUCinf, geometric mean (%CV)” value [2] was 1019 (58) ng.h/mL. The “AUClast, geometric mean (%CV)” value [2] was 912.4 (52) ng.h/mL, the “CL/F, geometric mean (%CV)” value [2] was 24.55 (58) L/h and the Cmax, geometric mean (%CV) [2] was 194 ng/mL. The “Tmax, median (range)” value [2] was 2.00 h, the “Vz/F, geometric mean (%CV)” value [2] was 85.26 (52) L and the “t1/2, arithmetic mean±standard deviation” value [2] was 2.444 ± 0.4523 h. The “AUCinf, individual value(s)” value [3] was 21.0 ng·h/mL, the “AUClast, individual value(s)” value [3] was 18.3 ng·h/mL and the “CL/F, individual value(s)” value [3] was 47.6 L/h. For the same compound, the Cmax, individual value(s) [3] was 5.39 ng/mL, the “Tmax, median (range)” value [3] was 2.17 h and the “Vz/F, individual value(s)” value [3] was 111 L. For the same compound, the “t1/2, individual value(s)” value [3] was 5800 s, the “AUCinf, individual value(s)” value [4] was 45.2 ng·h/mL and the “AUClast, individual value(s)” value [4] was 39.2 ng·h/mL and 58.3 ng·h/mL. The “CL/F, individual value(s)” value [4] was 44.2 L/h, the “Tmax, median (range)” value [4] was 1.25 h and the “Vz/F, individual value(s)” value [4] was 116 L. The “t1/2, individual value(s)” value [4] was 6550 s, the “AUCinf, individual value(s)” value [5] was 101 ng·h/mL and the “AUClast, individual value(s)” value [5] was 96.6 ng·h/mL and 442 ng·h/mL. For the same compound, the “CL/F, individual value(s)” value [5] was 49.7 L/h, the “Tmax, median (range)” value [5] was 2.02 h and the “Vz/F, individual value(s)” value [5] was 141 L. The “t1/2, individual value(s)” value [5] was 7060 s, the “AUCinf, geometric mean (%CV)” value [6] was 648.4 (60) ng.h/mL and the “AUClast, geometric mean (%CV)” value [6] was 599.4 (53) ng.h/mL. The “CL/F, geometric mean (%CV)” value [6] was 15.43 (60) L/h, the Cmax, geometric mean (%CV) [6] was 164 ng/mL and the “Tmax, median (range)” value [6] was 0.983 h. For the same compound, the “Vz/F, geometric mean (%CV)” value [6] was 55.32 (28) L, the “t1/2, arithmetic mean±standard deviation” value [6] was 2.567 h and the “AUCinf, geometric mean (%CV)” value [7] was 892.6 (73) ng.h/mL. The “AUClast, geometric mean (%CV)” value [7] was 787.9 (59) ng.h/mL, the “CL/F, geometric mean (%CV)” value [7] was 28.04 (73) L/h and the “Tmax, median (range)” value [7] was 1.90 h. For the same compound, the “Vz/F, geometric mean (%CV)” value [7] was 97.32 (56) L, the “t1/2, arithmetic mean±standard deviation” value [7] was 2.446 h and the “AUCinf, geometric mean (%CV)” value [8] was 1492 (20) ng.h/mL. The “AUClast, geometric mean (%CV)” value [8] was 1295 (25) ng.h/mL, the “CL/F, geometric mean (%CV)” value [8] was 16.78 (20) L/h and the Cmax, geometric mean (%CV) [8] was 244 ng/mL. The “Tmax, median (range)” value [8] was 2.17 h, the “Vz/F, geometric mean (%CV)” value [8] was 61.33 (20) L and the “t1/2, arithmetic mean±standard deviation” value [8] was 2.540 h. For the same compound, the “AUCinf, individual value(s)” value [9] was 2010 ng·h/mL and 3400 ng·h/mL, the “AUClast, geometric mean (%CV)” value [9] was 2510 (25) ng.h/mL and the “CL/F, individual value(s)” value [9] was 10.3 L/h and 17.4 L/h. The Cmax, geometric mean (%CV) [9] was 388 ng/mL, the “Tmax, median (range)” value [9] was 3.64 h and the “Vz/F, individual value(s)” value [9] was 55.5 L and 60.0 L. For the same compound, the “t1/2, individual value(s)” value [9] was 8600 s and 13500 s, the “AUCinf, geometric mean (%CV)” value [10] was 1614 (48) ng.h/mL and the “AUClast, geometric mean (%CV)” value [10] was 1395 (38) ng.h/mL. The “CL/F, geometric mean (%CV)” value [10] was 21.70 (48) L/h, the Cmax, geometric mean (%CV) [10] was 276 ng/mL and the “Tmax, median (range)” value [10] was 2.02 h. The “Vz/F, geometric mean (%CV)” value [10] was 86.06 (37) L, the “t1/2, arithmetic mean±standard deviation” value [10] was 2.809 h and the “AUCinf, geometric mean (%CV)” value [11] was 1875 (41) ng.h/mL. The “AUClast, geometric mean (%CV)” value [11] was 1976 (49) ng.h/mL, the “CL/F, geometric mean (%CV)” value [11] was 26.63 (41) L/h and the Cmax, geometric mean (%CV) [11] was 394 ng/mL. For the same compound, the “Tmax, median (range)” value [11] was 3.49 h, the “Vz/F, geometric mean (%CV)” value [11] was 79.74 (15) L and the “t1/2, arithmetic mean±standard deviation” value [11] was 2.163 h. For the same compound, the “AUCinf, geometric mean (%CV)” value [12] was 884.3 (34) ng.h/mL, the “AUClast, geometric mean (%CV)” value [12] was 1034 (43) ng.h/mL and the “CL/F, geometric mean (%CV)” value [12] was 28.26 (34) L/h. The Cmax, geometric mean (%CV) [12] was 225 ng/mL, the “Tmax, median (range)” value [12] was 1.97 h and the “Vz/F, geometric mean (%CV)” value [12] was 83.54 (17) L. For the same compound, the “t1/2, arithmetic mean±standard deviation” value [12] was 2.128 h, the “AUCinf, geometric mean (%CV)” value [13] was 1142 (50) ng.h/mL and the “AUClast, geometric mean (%CV)” value [13] was 1040 (46) ng.h/mL. The “CL/F, geometric mean (%CV)” value [13] was 21.87 (50) L/h, the Cmax, geometric mean (%CV) [13] was 228 ng/mL and the “Tmax, median (range)” value [13] was 2.52 h. For the same compound, the “Vz/F, geometric mean (%CV)” value [13] was 72.18 (37) L, the “t1/2, arithmetic mean±standard deviation” value [13] was 2.428 h and the “AUCinf, geometric mean (%CV)” value [14] was 593.3 (17) ng.h/mL. The “AUClast, geometric mean (%CV)” value [14] was 596.8 (33) ng.h/mL, the “CL/F, geometric mean (%CV)” value [14] was 42.14 (17) L/h and the Cmax, geometric mean (%CV) [14] was 122 ng/mL. The “Tmax, median (range)” value [14] was 2.00 h, the “Vz/F, geometric mean (%CV)” value [14] was 132.2 (52) L and the “t1/2, arithmetic mean±standard deviation” value [14] was 2.250 h. For the same compound, the “AUClast, geometric mean (%CV)” value [15] was 192.0 (201) ng.h/mL, the Cmax, geometric mean (%CV) [15] was 43.5 ng/mL and the “Tmax, median (range)” value [15] was 10.0 (5.35–10.2) h. For the same compound, the “AUCtau, geometric mean (%CV)” value [16] was 1351 (45) ng.h/mL, the “CL/F, geometric mean (%CV)” value [16] was 18.53 (45) L/h and the “Cmax, geometric mean (%CV)” value [16] was 315.5 (43) ng/mL. For the same compound, the “Cmin, geometric mean (%CV)” value [16] was 30.23 (119) ng/mL, the “Rac (observed accumulation ratio based on AUC), geometric mean (%CV)” value [16] was 1.135 (34) and the “Tmax, median (range)” value [16] was 1.94 h. The “Vz/F, geometric mean (%CV)” value [16] was 75.77 (43) L, the “t1/2, arithmetic mean±standard deviation” value [16] was 2.765 h and the “AUCtau, individual value(s)” value [17] was 25.3 ng·h/mL. The “CL/F, individual value(s)” value [17] was 39.5 L/h.
